The values that follow come from paper PMC7927616, “Dual‐Targeting Peptide‐Guided Approach for Precision Delivery and Cancer Monitoring by Using a Safe Upconversion Nanoplatform” (Advanced Science, 2021).

The test system of one data set is p65 in C666 cells. Nature of the data set: NF‐κB signaling analysis by Western blotting. The note with it: Western blot band density. Type of data set: cell-based. The text has this:
(§1) NF‐ĸB signaling pathway is critical for the survival of EBV‐infected tumor cells. Here we investigated if our nanoprobes could affect this oncogenic pathway. EBV‐positive LCL3 and C666 cells were used as models, EBV‐negative HK1 cells were used as control and Western blot was used to analyze the protein expression of p65, a major transcription factor in the NF‐ĸB family. […] GAPDH and Histone are regarded as internal standards in cytosolic and nuclear fractions, respectively. […] This is consistent with the cellular uptake results. The negligible differences of p65 expression level in HK1 cells were quantified after various treatments in Figure S28 (Supporting Information).
(§2) EBV‐positive C666, LCL3 and EBV‐negative HK1 cell pellets were treated with phosphatase and protease inhibitors at 0–4 °C for 30 min. The total protein concentrations were calculated by protein absorbance. The protein was resolved by sodium dodecyl sulfate‐polyacrylamide gel electrophoresis (SDS‐PAGE) and transferred to cellulose filter membranes. The membranes were blocked with 3% BSA in tris‐buffered saline in 0.1% Tween 20 (TBST) for 1 h with gentle shaking and subsequently incubated with primary antibodies (1:1000) in 3% BSA in TBST at 4 °C for overnight. […] Lastly, the density of bands was determined by image analysis system after washing with TBST buffer three times.

The next data set has as its system p65 in LCL3 cells. Put plainly: NF‐κB signaling analysis by Western blotting. Type of data set: cell-based. The note with it: Western blot band density.
Description: as §1, §2
In general terms: Immunoblotting shows a protein as a band on a membrane.

Data set [1] can be described thus: In vivo biodistribution by ICP-MS (Gd). The arrangement: species or system BALB/c nude mice. The note with it: mouse, iv.

As for ‐Ahx‐YFMVFGGRrRKGGFWLY [P5], the figures for the “Decreased p65 expression, nuclear fraction” value in the data set with p65 in C666 cells and in the data set with p65 in LCL3 cells were 89% and 86%, respectively. With NaGdF4:Yb^3+, Er^3+@NaGdF4 [UCNP], the Tumor uptake result in data set [1] is given as “nearly undetectable”.
